# Results taken from PubChem BioAssay (NCI).
# Where “and” joins values, the source holds several entries; their conditions need not be identical. Equal values may be shown once.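 Dose response: 5 concentrations. Exposure: 48 h. Format: 96-well plates. Endpoint: linear interpolation; highest concentration if not reached. GI50: concentration for 50% inhibition of growth. At the TGI there is no net growth.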
# Legend:
# Experiment in all cases: DTP human tumour cell line panel, 48 h
# [1] = test system: KM12 colon
# [2] = test system: K-562 leukemia
# [3] = test system: SNB-19 CNS
# [4] = test system: M14 melanoma
# [5] = test system: HOP-92 NSCLC
# [6] = test system: SNB-75 CNS
# [7] = test system: U251 CNS
# [8] = test system: SW-620 colon
# [9] = test system: MDA-N
# [10] = test system: SK-MEL-2 melanoma
# [11] = test system: ACHN renal
# [12] = test system: SN12C renal
# [13] = test system: HT29 colon
SMILES,TGI [1],TGI [2],TGI [3],TGI [4],TGI [5],TGI [6],TGI [7],TGI [8],TGI [9],TGI [10],TGI [11],TGI [12],TGI [13],GI50 [1],GI50 [4],GI50 [8],GI50 [9],GI50 [10],GI50 [13]
CCOC(=O)N/N=C(/N)c1cccc([N+](=O)[O-])c1,> 100 µM,> 100 µM,> 100 µM,> 100 µM,> 100 µM,> 100 µM,> 100 µM,> 100 µM,> 100 µM,> 100 µM,> 100 µM,> 100 µM,> 100 µM,–,–,–,–,–,–
Cc1ccc(/C=C2\CCCc3ccccc3C2=O)cc1,18.2 µM,53.7 µM,89.2 µM,20.4 µM,72.4 µM,> 100 µM,52.9 µM,65.9 µM,4.48 µM,9.07 µM,> 100 µM,39.6 µM,18.5 µM,–,–,–,–,–,–
O=C(N/N=C\c1cccc2c([N+](=O)[O-])cccc12)Nc1ccccc1,36.1 µM,43.5 µM,36.5 µM,29.5 µM,30.4 µM,> 100 µM,24 µM,35.8 µM,32.8 µM,18.2 µM,27.3 µM,18.9 µM,34.7 µM,–,–,–,–,–,–
O=C(O)c1ccc([N+](=O)[O-])c2cc3cnccc3nc12,44.4 µM,36.5 µM,–,37.2 µM,45.8 µM,34.2 µM,35.6 µM,–,51.3 µM,38.9 µM,–,32.8 µM,57.3 µM,–,–,–,–,–,–
O=C1C=CC[C@H]2O[C@@H](COC(=O)Cc3ccccc3)C[C@H]2O1,42.4 µM,> 100 µM,> 100 µM,> 100 µM,> 100 µM,77.2 µM,–,> 100 µM,> 100 µM,> 100 µM,> 100 µM,> 100 µM,71.7 µM,–,–,–,–,–,–
CCN(CC)CCNc1nc2ccc([N+](=O)[O-])cc2[n+]([O-])n1,> 100 µM,54.3 µM,> 100 µM,41.2 µM,> 100 µM,> 100 µM,77.2 µM,64.1 µM,29.5 µM,35.3 µM,> 100 µM,54.9 µM,52.1 µM,–,–,–,–,–,–
CCCCN1C(=O)N(c2ccc(OCC)cc2)C2N(CCCC)C1C(C)(C)C2(C)C (configuration not stated),> 100 µM,–,> 100 µM,> 100 µM,85.1 µM,> 100 µM,> 100 µM,> 100 µM,> 100 µM,> 100 µM,> 100 µM,> 100 µM,> 100 µM,–,–,–,–,–,–
CC(=O)OCC12C(=O)C[C@@H](C)C3(CC(c4ccoc4)OC3=O)C1CCC(OC(C)=O)C21CO1 (some centres not stated),> 100 µM,> 100 µM,> 100 µM,> 100 µM,> 100 µM,> 100 µM,> 100 µM,> 100 µM,> 100 µM,> 100 µM,> 100 µM,> 100 µM,> 100 µM,–,–,–,–,–,–
O=c1[nH]nc(-c2ccccc2)c2[nH]c3c4ccccc4ccc3c12,> 100 µM,> 100 µM,> 100 µM,> 100 µM,> 100 µM,> 100 µM,> 100 µM,> 100 µM,0.545 µM,> 100 µM,> 100 µM,> 100 µM,–,–,–,–,–,–,–
CSc1ccc2c(cc1=O)[C@@H](NC(=O)c1ccc(N)cc1)CCc1cc(O)c(O)c(O)c1-2,33.2 µM and 17 µM,> 100 µM,61 µM and > 100 µM,27.9 µM and 36.5 µM,> 100 µM,> 100 µM,57.3 µM and > 100 µM,> 100 µM,> 75 µM and 54.1 µM,> 100 µM,37.4 µM and 43.8 µM,> 75 µM and 90.1 µM,30.5 µM and 9.94 µM,14.7 µM and 3.68 µM,13.5 µM and 5.66 µM,18.7 µM and 8.21 µM,23.9 µM and 5.99 µM,30.9 µM and 11.4 µM,13.3 µM and 2.57 µM
COc1ccc(C2OC[C@H]3O[C@@H](OCc4ccccc4)[C@H](O)[C@@H](O)[C@@H]3O2)cc1 (some centres not stated),–,> 100 µM,> 100 µM,–,> 100 µM,> 100 µM,> 100 µM,> 100 µM,> 100 µM,> 100 µM,> 100 µM,> 100 µM,> 100 µM,–,–,–,–,–,–
O=C(NNC(=S)Nc1cccc(Cl)c1)c1cc(-c2ccccc2)nc2ccccc12,49 µM,> 100 µM,33.9 µM,33.7 µM,30.2 µM,66.5 µM,30.4 µM,31.3 µM,36.5 µM,27.7 µM,31.8 µM,37.1 µM,45.3 µM,–,–,–,–,–,–
O=c1cc(-c2ccc(F)cc2)[nH]c2ncc(Cl)cc12,> 100 µM,32.6 µM,> 100 µM,> 100 µM,65.4 µM,48.7 µM,> 83.4 µM,> 100 µM,7.91 µM,> 100 µM,> 100 µM,> 100 µM,> 100 µM,–,–,–,–,–,–
Nc1cc2[nH]c(=O)c(=O)[nH]c2cc1N,> 100 µM,> 100 µM,> 100 µM,–,> 100 µM,> 100 µM,> 100 µM,> 100 µM,> 100 µM,> 100 µM,> 100 µM,> 100 µM,> 100 µM,–,–,–,–,–,–
CC1OC(OC2C(O[C@H]3CC[C@@]4(C)C(=CC[C@H]5[C@@H]6C[C@@H]7O[C@]8(CC[C@@H](CO)CO8)[C@@H](C)[C@@H]7[C@@]6(C)CC[C@@H]54)C3)OC(CO)C(O)C2OC2OC(CO)C(O)C(O)C2O)C(O)C(O)C1O (some centres not stated),3.57 µM,3.17 µM,3.96 µM,4.14 µM,3.32 µM,3.06 µM,3.22 µM,3.54 µM,3.06 µM,3.7 µM,3.25 µM,3.21 µM,4.91 µM,–,–,–,–,–,–
